The subject of series [1] is RA metabolism in intact T47D cells. Put plainly: Microcolumn assay for RA metabolism in intact T47D cells. It counts as cell-based, human. Particulars: intact T47D cells pretreated 16 h with 1 μM RA; 0.1 μM [3H]RA, 90 min; read-out: IC50 inhibition of RA metabolism. The protocol: RA metabolism was quantitatively determined using the microcolumn assay as described previously ([Krekels et al, 1997]). […] Cells were then washed twice with culture medium, harvested and resuspended at 4×10^6 cells ml^−1. An aliquot of this cell suspension (450 μl) was incubated for 90 min in the presence of 0.1 μM [11, 12-^3H(N)]RA, after which 2 ml acetonitrile was added. After centrifugation for 10 min at 780 g, the resulting deproteinized supernatant was acidified with 2.5 ml of 40 mM acetic acid and applied to a 3 ml C18 Bond Elut LRC column (Varian, Harbor City, CA, USA; pretreated with 4 ml distilled water) under a vacuum of 127 mmHg using VAC ELUT SPS-24 and the effluent was collected. The column was eluted with 1 ml 40% acetonitrile and the effluent was collected in the same vial. Radioactivity in the collected effluent, containing the polar metabolites, was determined in a Packard Tri-carb 4530 liquid scintillation analyzer. Optiphase ‘Hi Safe II’ (Wallac, Milton Keynes, UK) was used as a scintillator. Data are presented as mean±s.d. of three or four independent experiments. The IC50-values were calculated by non-linear regression analysis using SigmaPlot 4.01 software.

Another series has as its target T1, 17,20-lyase (CYP17) (Rattus norvegicus, UniProt P11715).
T1 construct: 17,20-lyase (CYP17) in rat testicular S10 fractions; from tissue; host or cells: rat testis, S10 fraction
T1 sequence (P11715 1-507): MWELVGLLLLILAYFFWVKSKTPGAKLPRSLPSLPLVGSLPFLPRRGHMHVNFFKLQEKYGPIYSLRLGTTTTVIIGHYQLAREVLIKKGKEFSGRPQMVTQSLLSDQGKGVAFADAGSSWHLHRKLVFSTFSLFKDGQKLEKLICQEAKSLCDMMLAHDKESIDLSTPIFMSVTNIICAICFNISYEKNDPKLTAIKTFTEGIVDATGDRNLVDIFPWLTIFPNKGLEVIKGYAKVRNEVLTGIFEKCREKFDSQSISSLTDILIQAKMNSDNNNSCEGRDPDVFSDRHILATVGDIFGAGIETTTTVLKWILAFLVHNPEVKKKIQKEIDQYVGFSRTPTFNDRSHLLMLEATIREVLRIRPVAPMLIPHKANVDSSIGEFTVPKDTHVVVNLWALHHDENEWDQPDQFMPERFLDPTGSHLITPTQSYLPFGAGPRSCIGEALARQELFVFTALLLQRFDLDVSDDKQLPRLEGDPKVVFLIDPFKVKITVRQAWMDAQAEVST
Nature of the series: 17,20-lyase in rat testicular S10 fraction. It counts as biochemical.

Another series addresses T2, CYP2C11 (Rattus norvegicus, UniProt P08683).
T2 construct: hydroxylation of testosterone (CYP2C11, CYP2A1, CYP3A, CYP2B1/2) in rat liver microsomes; from tissue; host or cells: rat liver, microsomes
T2 sequence (P08683 1-500): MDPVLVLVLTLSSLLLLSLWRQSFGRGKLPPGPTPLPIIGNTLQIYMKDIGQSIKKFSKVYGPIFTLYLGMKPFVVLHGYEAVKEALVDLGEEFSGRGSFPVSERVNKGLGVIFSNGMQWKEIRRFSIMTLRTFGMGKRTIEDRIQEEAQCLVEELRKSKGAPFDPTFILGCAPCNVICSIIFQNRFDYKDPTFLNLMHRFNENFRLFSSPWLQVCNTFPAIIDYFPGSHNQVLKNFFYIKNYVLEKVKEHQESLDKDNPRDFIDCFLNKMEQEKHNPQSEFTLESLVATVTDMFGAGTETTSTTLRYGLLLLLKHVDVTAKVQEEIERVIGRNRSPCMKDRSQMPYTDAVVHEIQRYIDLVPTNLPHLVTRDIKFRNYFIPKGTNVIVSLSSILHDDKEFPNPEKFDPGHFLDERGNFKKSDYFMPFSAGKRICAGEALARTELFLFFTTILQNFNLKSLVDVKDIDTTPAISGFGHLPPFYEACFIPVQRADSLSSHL
Put plainly: Testosterone 2α-hydroxylase in rat liver microsomes. Format: biochemical. As to conditions: Rat liver microsomes. (In general: Liver microsomes are a subcellular fraction often used to study metabolism.)

A further series concerns the target T3, CYP2A1 (Rattus norvegicus, UniProt P11711).
T3 construct: hydroxylation of testosterone (CYP2C11, CYP2A1, CYP3A, CYP2B1/2) in rat liver microsomes; from tissue; host or cells: rat liver, microsomes
T3 sequence (P11711 1-492): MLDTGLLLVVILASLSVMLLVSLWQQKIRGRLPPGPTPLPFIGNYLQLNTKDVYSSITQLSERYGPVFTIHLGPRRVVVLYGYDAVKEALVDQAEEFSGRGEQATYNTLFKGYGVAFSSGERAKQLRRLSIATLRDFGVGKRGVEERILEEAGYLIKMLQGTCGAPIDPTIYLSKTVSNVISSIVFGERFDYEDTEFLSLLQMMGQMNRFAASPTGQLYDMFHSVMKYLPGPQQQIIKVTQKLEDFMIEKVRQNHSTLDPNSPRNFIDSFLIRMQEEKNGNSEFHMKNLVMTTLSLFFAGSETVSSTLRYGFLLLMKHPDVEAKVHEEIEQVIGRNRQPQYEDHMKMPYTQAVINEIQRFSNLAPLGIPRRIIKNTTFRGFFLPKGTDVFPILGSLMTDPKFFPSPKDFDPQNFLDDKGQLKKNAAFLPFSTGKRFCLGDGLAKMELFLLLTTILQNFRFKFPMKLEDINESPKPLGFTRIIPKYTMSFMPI
Put plainly: Testosterone 7α-hydroxylase in rat liver microsomes. Format: biochemical. Particulars: Rat liver microsomes.

In a further series the test system is CYP2B1/2. Put plainly: Testosterone 16β-hydroxylase in rat liver microsomes. It counts as biochemical. Particulars: Rat liver microsomes.
The next series has as its system T47D cells. Put plainly: T47D cell proliferation (MTT assay, 7 days). It counts as cell-based, human. The protocol:
T47D cells were seeded in Falcon® 96-well cell culture plates (Life Technologies, Merelbeke, Belgium) at 2500 cells per well in a total volume of 150 μl. Cells were allowed to adhere to plastic for 24 h. Drugs and/or medium were added to a final volume of 200 μl (day 0). Cells were grown under these conditions for 7 days, with renewal of medium and drugs on days 2 and 5. On day 7, medium was renewed and 25 μl MTT-solution was added, and cells were further incubated for 2 h in a cell incubator. The medium was aspirated and 25 μl Sorensen glycine buffer (0.1 M glycine, 0.1 M NaCl; pH 10.5) was added together with 100 μl DMSO to solubilize the blue MTT-formazan product. […] Data are presented as mean±s.d. of three or four independent experiments. Within an experiment, the result of each experimental condition is the mean of six replicate wells. The IC50-values were calculated by non-linear regression analysis using SigmaPlot 4.01 software.
(In general: Tetrazolium assays rely on reduction of a dye to a coloured formazan, in cell work by metabolically active cells.)

In the next series the test system is CYP3A. As to conditions: microsomes.
A further series concerns TA3-Ha mammary tumours. Put plainly: TA3-Ha mammary carcinoma model. Particulars: for toxicity findings: at toxic dose: RA 5, R116010 5, liarozole fumarate 20 mg kg^−1; for therapeutic window: maximum tolerated dose versus lowest active dose, TA3-Ha model; for lowest active dose inhibiting TA3-Ha tumour growth: day 1 until day 21, tumour weight.
The next series is described as follows: in vivo. Particulars: mouse, po.

Each structure is given as a SMILES string. Where only a bound is given, the exact number is not on record here.

Experimental for 17,20-lyase (CYP17): Metabolism of RA by CYP26A1 was measured in microsomes of T47D human breast cancer cells that were pretreated for 16 h with 1 μM RA to induce RA metabolism. Microsomes were prepared exactly as described by [Han and Choi (1996)], and RA metabolism was measured as described by [Van Wauwe et al (1994)]. The conversion of androstenedione to estrone by aromatase (CYP19) in human placental microsomes, the conversion of 17-hydroxy-20-dihydroprogesterone to testosterone by 17,20-lyase (CYP17) in rat testicular S10 fractions, and the 2α-, 7α-, 6β-, and 16β-hydroxylation of testosterone (CYP2C11, CYP2A1, CYP3A, CYP2B1/2) in rat liver microsomes were carried out as described ([Vanden Bossche et al, 1990]).
Experimental for CYP2A1: (§1) The conversion of androstenedione to estrone by aromatase (CYP19) in human placental microsomes, the conversion of 17-hydroxy-20-dihydroprogesterone to testosterone by 17,20-lyase (CYP17) in rat testicular S10 fractions, and the 2α-, 7α-, 6β-, and 16β-hydroxylation of testosterone (CYP2C11, CYP2A1, CYP3A, CYP2B1/2) in rat liver microsomes were carried out as described ([Vanden Bossche et al, 1990]).
Experimental for CYP2B1/2: as §1
Experimental for CYP2C11: as §1
Experimental for CYP3A: as §1
Experimental for TA3-Ha mammary tumours: (§2) Cells (1.5×10^6) were injected intraperitoneally in syngeneic A/J mice. […] Each group consisted of 10 animals for experiments with R116010 and of six animals for experiments with RA. All treatments were performed by oral gavage. […] The control groups were given the vehicle 20% 4-OH-β-cyclodextrine in sterile saline. Mice were daily examined for adverse drug effects. At the end of the experiments, subcutaneous tumours were excised 24 h after the last treatment and weighed to validate the antitumoural effects of the treatment.
(§3) Data are represented as box plots showing median group value, 25/75th percentile, 10/90th percentile and outliers. Groups were statistically compared to the vehicle-treated groups using the Mann–Whitney U-test. Significance was defined at the level of P<0.05.
Experimental for in vivo: as §2, §3

As to `Clc1cccc(C(c2ccc3[nH]cnc3c2)n2ccnc2)c1.Clc1cccc(C(c2ccc3[nH]cnc3c2)n2ccnc2)c1.O=C(O)/C=C/C(=O)O.O=C(O)/C=C/C(=O)O.O=C(O)/C=C/C(=O)O` (racemic) [liarozole-fumarate, ±-5-[(3-chlorophenyl)(1H-imidazole-1-yl)methyl]-1H-benzimidazole (E)-2-butenedioate (2:3), reference compound], the IC50 in [1] was 1.4 µM; on 17,20-lyase (CYP17) it was 0.11 µM; on CYP2C11, 2.9 µM; at CYP2A1, above 10 µM; in the series with CYP2B1/2, 0.5 µM; in the series on CYP3A, 0.4 µM. For the same compound, the “decrease of T47D cell proliferation by itself” value in the series with T47D cells (10 μM, compound alone) is “approximately 25%”. Besides, the “enhancement of the antiproliferative activity of RA” value in the series on T47D cells (liarozole-fumarate tested up to 10 μM, T47D cells) is on record as “unable to enhance”. The toxicity findings result with TA3-Ha mammary tumours is “hair loss and bone fractures”. Also, in the series on TA3-Ha mammary tumours, the therapeutic window result is reported as “no therapeutic window”. Besides, the “lowest active dose inhibiting TA3-Ha tumour growth” value in the series on TA3-Ha mammary tumours (oral, twice daily) came out at 10 mg/kg.

On to `CC1=C(/C=C/C(C)=C/C=C/C(C)=C/C(=O)O)C(C)(C)CCC1` [RA, All-trans-retinoic acid], for which the IC50 in the series with T47D cells (Homo sapiens, T47D, 168 h, read-out: IC50 T47D cell proliferation) is 0.002 ± 0.0005 µM. In addition, the MTD in “in vivo” was 5 mg/kg. Besides, the “loss of body weight” value in the series on TA3-Ha mammary tumours (RA 5 mg kg^−1, mice) is 5%. Also, in the series on TA3-Ha mammary tumours, the toxicity findings entry was “hair loss, and impaired movement due to bone fractures”; the therapeutic window result was “does not show a real therapeutic window”. Further, in the series with TA3-Ha mammary tumours (mice, oral, twice daily, toxicity related to hypervitaminosis A), the “dose at which toxicity was observed” value came out at 5 mg/kg. Moreover, the “lowest active dose inhibiting TA3-Ha tumour growth” value in the series with TA3-Ha mammary tumours (oral, twice daily) is 2.5 mg/kg.

(Values after PMC2375285, “Inhibition of all-TRANS-retinoic acid metabolism by R116010 induces antitumour activity” (British Journal of Cancer, 2002).)
